Experimental data taken from PubChem BioAssay AID449762 (Southern Research Specialized Biocontainment Screening …, 2010).
Records with an inconclusive call do not appear.

Each compound was assayed on M. tuberculosis H37Rv growth inhibition, 7H9 media (assay: M. tuberculosis growth inhibition, HTS (AID 449762;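 further: bacterial growth assessed after seven days of incubation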)). Conditions: measured here: IC90 growth inhibition.
O=C(N/N=C\C=C\c1ccc([N+](=O)[O-])o1)c1cccs1 gave an IC90 of 0.92 µM. With C/C(=N\NC(=O)CC(C)C)c1c(C(F)(F)F)[nH]n(-c2nc3ccccc3s2)c1=O the IC90 was greater than 100 µM. With COCCOC(=O)c1ccc(NC(=O)COc2ccc([N+](=O)[O-])cc2)cc1 the IC90 was greater than 100 µM. With COc1ccccc1NC(=O)c1ccc(NC(=O)CSc2nnnn2C)cc1 the IC90 was 13.8 µM. In the case of Cc1ccc(-c2nc3ccsc3c(=O)o2)cc1, the IC90 is reported as greater than 100 µM. For CCCOC(=O)c1ccc(-c2ccc(C=O)o2)cc1, the IC90 was greater than 100 µM. In the case of O=C(COC(=O)c1cccs1)c1ccccc1, the IC90 is reported as greater than 100 µM. COc1cc(OC)cc(-c2cc3nc(C)c(CCC(=O)NC(C)CCc4ccco4)c(C)n3n2)c1 (centres undefined) showed an IC90 greater than 100 µM. CCOc1ccc(/C=C/C2=Cc3c(sc(NC(=O)CSc4n[nH]c(N)n4)c3C#N)C(C)(C)C2)cc1 gave an IC90 greater than 100 µM. For CCCCCc1ccc(-c2cn(Cc3cccc(OC)c3)nn2)cc1, the IC90 was 50 µM. For CCC(=O)Nc1nc2ccccc2n1Cc1ccc(Cl)cc1, the IC90 was 4.92 µM. Compound Cc1nn(CCc2nn[nH]n2)c2nc(-c3ccc(Br)cc3)cc(C(F)(F)F)c12 has an IC90 of 10.8 µM. For CSC1=NC(C)(C)C=C(/C=C/c2ccc(Cl)cc2)N1, the IC90 was 44.5 µM. O=C(Nc1nc(-c2cc(Cl)sc2Cl)cs1)c1cccs1 gave an IC90 greater than 100 µM. NCCCn1c(C(=O)c2ccc(Cl)cc2)c2ccc([N+](=O)[O-])cc2[n+]1[O-] was tested, and the IC90 was 32.3 µM. CC1CCN(C(=O)C2CCN(c3nnc(-n4cccc4)s3)CC2)CC1 was tested, and the IC90 was 3.37 µM. CCOc1ccc(-c2nn3c(-c4ccccc4)nnc3s2)cc1 showed an IC90 greater than 100 µM. CN1C(=O)N(C)c2ccc(C=O)c3cccc1c23 showed an IC90 of 57.2 µM. Compound CSCCC1NC(=O)N(CC(=O)N2N=C(c3ccc(Cl)cc3)CC2c2ccco2)C1=O (centres undefined) has an IC90 of 16 µM. c1ccc(CN2CCN(CCCNc3ccc4nnc(-c5ccccc5)n4n3)CC2)cc1 gave an IC90 of 24.7 µM. Compound CC(Oc1cc2oc(=O)c3c(c2cc1Cl)CCCC3)C(=O)NCc1ccccn1 (centres undefined) has an IC90 greater than 100 µM. In the case of COc1cc2[nH]c3c(N4CCN(c5ccccn5)CC4)ncnc3c2cc1OC, the IC90 is reported as greater than 50 µM. Work on NC(=S)N/N=C/c1ccccc1OCCSc1ccc(Cl)cc1 yielded an IC90 greater than 100 µM. For Cc1ccc(Cl)cc1N1CCN(Cc2nc3ccsc3c(=O)[nH]2)CC1, the IC90 was greater than 100 µM. For O=[N+]([O-])c1ncccc1Oc1nc(-c2cccnc2)nc2ccccc12, the IC90 was 1.36 µM. With CSc1ccc(C(=O)C2CCCN(C(=O)c3ccc4c(c3)no[n+]4[O-])C2)cc1 (centres undefined) the IC90 was 1.57 µM. ClCc1nc2ccccc2c2ccccc12 showed an IC90 of 17.2 µM. Nc1ccc2c(c1)Cc1ccccc1-2 was tested, and the IC90 was greater than 100 µM. Compound COC(=O)C1=C(c2ccc(OCc3ccccc3)cc2)C[C@@H]2CC[C@H]1N2C(=O)NC1CCN(Cc2ccccc2)CC1 has an IC90 of 27.5 µM. With c1ccc(CN2CCC3(CCCc4ccccc43)CC2)cc1 the IC90 was 13.6 µM. O=c1cc(/C=C/c2ccccc2)oc2ccccc12 showed an IC90 greater than 100 µM. With N#CC1=C(c2ccccc2)/C(=C/c2ccccc2)OC1=O the IC90 was 20.1 µM. In the case of O=C(Nc1ccc(Cl)cc1)N(C1=NCCC1)c1ccc(OC(F)F)cc1, the IC90 is reported as 70.9 µM. Cc1cc(C)c2ccc(NN)nc2c1O was tested, and the IC90 was 4.95 µM. In the case of O=C(Nc1cc(C(F)(F)F)ccc1-n1cncn1)c1ccc([N+](=O)[O-])o1, the IC90 is reported as 32.5 µM. O=C(CCN1C(=O)/C(=C/c2ccccc2)SC1=S)Nc1ccccn1 was tested, and the IC90 was greater than 100 µM. NC(=O)N=Nc1c2[nH]c3ccccc3nc-2c2ccccc12 was tested, and the IC90 was 7.08 µM. Compound COC(=O)CCCCC1SCC(NC(=O)c2ccccc2)C1=O (centres undefined) has an IC90 of 15.4 µM. Cc1cc(C)nc(Sc2ncnc(N)c2[N+](=O)[O-])n1 was tested, and the IC90 was 20.7 µM. c1ccc2nc(-c3ccc(-n4ccnc4)cc3)ccc2c1 showed an IC90 of 25.9 µM. CN(CCCC1CCCC1)C(=O)CCc1nnc(-c2ccccc2)o1 showed an IC90 of 20.1 µM. c1ccc(C[C@H]2CN=C(Nc3ccccc3)N2CCCC2CCCC2)cc1 gave an IC90 of 48.5 µM. Compound Cc1cc(C2=NNC(=NC3CCCCC3)SC2)c(C)n1-c1c(C)n(C)n(-c2ccccc2)c1=O has an IC90 greater than 100 µM. Work on Cc1cc(C)n(-c2nc(Nc3ccccc3C(F)(F)F)nc(-n3nc(C)cc3C)n2)n1 yielded an IC90 of 1.56 µM.
